Measured values taken from US20080081796A1, “TREATMENT OF MUCOSITIS” (priority 2002, published 2008).

System: oral mucositis induced by acute radiation
Experiment: oral mucositis induced by acute radiation in an animal model (Animal Study and Animal Study II)
Type: in vivo, Golden Syrian hamsters
Conditions: for severity of oral mucositis (average oral mucositis scores, FIG. 1): topical TID 0.25 ml to left cheek pouch, 40 Gy radiation on day 0, versus water control
Description: The objective of this study was to evaluate the effect of the nucleoside derivative, 5′-adenosine-diphosphate ribose, when administered topically, on the frequency, severity and duration of oral mucositis induced by acute radiation in an animal model.
The animals in the study ([…] Golden Syrian hamsters, Charles River Lab., ages 5-6 weeks, approximately 90 g average body weight) were randomly and prospectively divided into three groups of eight animals each. The particular test material to be applied to the animal mucosa during the study essentially defined each group. The test materials were water (Group 1 control), ADP-ribose 100 μg/ml in water (Group 2) and ADP-ribose 500 μg/ml in water (Group 3).
Mucositis was induced in the animals with a standardized acute radiation protocol. A single dose of radiation (40 Gy/dose) was administered to each animal on day 0. Irradiation targeted the left buccal pouch mucosa at a rate of 121.5 cGy/minute. The left buccal pouch was everted, fixed and isolated using a lead shield. Prior to and following radiation on day 0, each animal was dosed with their respective test materials in the manner described below. Also, immediately prior to radiation, the buccal mucosa was everted and any excess test material solution was wiped away using a clean tissue or cotton swab.
The respective test materials were then applied topically TID to the irradiated mucosa of each animal on day 1 to day 20 of the study. To accomplish this, a tuberculin syringe without a needle, containing 0.25 ml of the test material, was inserted into the base of the left cheek pouch and the test material deposited accordingly. This was done TID (first between 8-9:00 am; second between […] and 1:00 pm; third between 4-6:00 pm). Any developing mucositis was evaluated and scored on alternate days from day 6-28. Each animal was also weighed and its survival recorded on day 1 to day 28.
During the study, each animal was tested for mucositis scores, weight change and survival. For the evaluation of mucositis, the animals were anesthetized with inhalation anesthetics, and the left pouch everted. The developing mucositis was scored visually by comparison to a validated photographic scale, ranging from 0 for normal, to 5 for severe ulceration (clinical scoring). In descriptive terms, this scale is defined in the following table:
A mucositis score of 1-2 represents a mild stage of the disease. A score of 3-5 indicates moderate to severe mucositis. Following visual scoring, a photograph was taken of each animal's mucosa using a standardized technique. At the conclusion of the experiment, all film was developed and the photographs randomly numbered. At least two independent trained observers graded the photographs in blinded fashion using the above-described scale (blinded scoring). Results of the mucositis scores are graphically illustrated in FIG. 1.
The animal study described in Example 2 was then repeated with an identical protocol but with modified ADP-ribose doses. The groups in this study were treated with water (control), ADP-ribose at 100 μg/ml in water (Compound F), ADP-ribose at 45 μg/ml in water (Compound G), and ADP-ribose at 15 μg/ml in water (Compound H). […] Animals in the control group had mucositis scores ≧3 for approximately 10 days, whereas the ADP-ribose group had scores of approximately 3 for only 4 days.

Substance: 5′-adenosine-diphosphate ribose [ADP-ribose]
- severity of oral mucositis (average oral mucositis scores, FIG. 1) (Example 3, ADP-ribose at 100 μg/ml in water (Compound D group)): decreased the severity of oral mucositis
- severity of oral mucositis (average oral mucositis scores, FIG. 1) (Example 3, ADP-ribose at 500 μg/ml (Compound E group)): decreased the severity of oral mucositis
- effect on oral mucositis at 100 μg/ml compared with 500 μg/ml (Example 3, FIG. 1, comparison of the two ADP-ribose concentrations): superior to that of ADP-ribose at 500 μg/ml
- healing of oral mucositis (Example 4, Animal Study II, FIG. 2, ADP-ribose at a 45 μg/ml dose (Compound G)): maximum healing of oral mucositis that was statistically significant
- time with mucositis scores of approximately 3 (Example 4, Animal Study II, FIG. 2, ADP-ribose group, control group had scores ≧3 for approximately 10 days): 4 days
- healing of ulcers associated with mucositis (mucositis score ≧3) relative to the control (Example 4, Animal Study II, FIG. 2, ADP-ribose treatment groups (100, 45, 15 μg/ml in water)): healed faster
